Laboratory results as given in ChEMBL document CHEMBL4765295, “Synthesis, pharmacological profile and 2D-QSAR studies of curcumin-amino acid conjugates as potential drug candidates” (Eur J Med Chem, 2020).
“And” between values parts separate entries of the source, which are not always exact repeats. Equal entries are not always repeated.

Tested on: Mus musculus
Assay: Analgesic activity in albino mouse assessed protection against acetic acid-induced abdominal writhing at 10 mg/kg, ip pretreated for 1 hr followed by acetic acid challenge and measured starting 5 mins post acetic acid challenge for 10 mins relative to control (reference value: 0 %)
Type: functional
Conditions: time 75 min, 1.25 h

Compound | Activity
COc1cc(/C=C/C(=O)/C=C(O)/C=C/c2ccc(OC(=O)[C@H](CCSC)NC(=O)OCc3ccccc3)c(OC)c2)ccc1OC(=O)[C@H](CCSC)NC(=O)OCc1ccccc1 | 61.1%

Tested on: Mus musculus
Assay: Analgesic activity in albino mouse assessed as forepaw licking/jumping latency time at 10 mg/kg, ip measured after 30 mins by hot plate test (reference value: 5.02 +/- 0.09 sec)
Type: functional
Conditions: 0.5 h

Compound | Time
COc1cc(/C=C/C(=O)/C=C(O)/C=C/c2ccc(OC(=O)[C@H](CCSC)NC(=O)OCc3ccccc3)c(OC)c2)ccc1OC(=O)[C@H](CCSC)NC(=O)OCc1ccccc1 | 5.32 s

Tested on: Rattus norvegicus
Assay: Antiinflammatory activity in Wistar rat model of carrageenan-induced paw edema assessed as reduction in thickness of paw edema at 10 mg/kg, ip pretreated for 1 hr followed by carrageenan challenge and measured after 1 hr (reference value: 2.41 +/-0.05 mm)
Type: functional
Conditions: time 1 hr after carrageenan

Compound | Activity
COc1cc(/C=C/C(=O)/C=C(O)/C=C/c2ccc(OC(=O)[C@H](CCSC)NC(=O)OCc3ccccc3)c(OC)c2)ccc1OC(=O)[C@H](CCSC)NC(=O)OCc1ccccc1 | 0.58 mm

Tested on: Candida albicans
Assay: Antifungal activity against Candida albicans incubated for 18 to 24 hrs by CLSI method
Type: functional
Conditions: time 18-24 hrs

MIC | Compound
2 µg/mL and 2.23 µM | COc1cc(/C=C/C(=O)/C=C(O)/C=C/c2ccc(OC(=O)[C@H](CCSC)NC(=O)OCc3ccccc3)c(OC)c2)ccc1OC(=O)[C@H](CCSC)NC(=O)OCc1ccccc1

Tested on: not listed separately
Assay: Toxicity in albino mouse assessed as induction of toxic symptoms at 50 to 100 mg/kg, ip measured after 24 hrs
Type: organism-based
Conditions: in vivo, dose 50-100 mg/kg

Compound | Activity
COc1cc(/C=C/C(=O)/C=C(O)/C=C/c2ccc(OC(=O)[C@H](CCSC)NC(=O)OCc3ccccc3)c(OC)c2)ccc1OC(=O)[C@H](CCSC)NC(=O)OCc1ccccc1 | Non-Toxic

Tested on: not listed separately
Assay: Ulcerogenic activity in fasted albino mouse assessed as incidence of gastric ulceration at 10 mg/kg, po for 3 days (reference value: 0 %)
Type: toxicity, organism-based
Conditions: in vivo, 72 h, time 3 day

Compound | Activity
COc1cc(/C=C/C(=O)/C=C(O)/C=C/c2ccc(OC(=O)[C@H](CCSC)NC(=O)OCc3ccccc3)c(OC)c2)ccc1OC(=O)[C@H](CCSC)NC(=O)OCc1ccccc1 | 3.33%

Tested on: Peritoneal macrophage
Assay: Antiinflammatory activity in […] mouse Peritoneal macrophages assessed as inhibition of LPS-induced NO production at 10 uM preincubated for 1 hr followed by LPS stimulation measured after 24 hrs by Griess method relative to control (reference value: 0.0 %)
Type: functional
Set-up: scale not given: the % may be the effect or the level left
Conditions: time 25 hrs

Compound | Activity
COc1cc(/C=C/C(=O)/C=C(O)/C=C/c2ccc(OC(=O)[C@H](CCSC)NC(=O)OCc3ccccc3)c(OC)c2)ccc1OC(=O)[C@H](CCSC)NC(=O)OCc1ccccc1 | 44.44%

Tested on: Mus musculus
Assay: Analgesic activity in albino mouse assessed as forepaw licking/jumping latency time at 10 mg/kg, ip measured after 120 mins by hot plate test (reference value: 2.62 +/- 0.06 sec)
Type: functional
Conditions: 2 h

Compound | Time
COc1cc(/C=C/C(=O)/C=C(O)/C=C/c2ccc(OC(=O)[C@H](CCSC)NC(=O)OCc3ccccc3)c(OC)c2)ccc1OC(=O)[C@H](CCSC)NC(=O)OCc1ccccc1 | 3.18 s

Tested on: Rattus norvegicus
Assay: Antiinflammatory activity in Wistar rat model of carrageenan-induced paw edema assessed as reduction in thickness of paw edema at 10 mg/kg, ip pretreated for 1 hr followed by carrageenan challenge and measured after 3 hrs (reference value: 1.79 +/-0.07 mm)
Type: functional
Conditions: time 4 hrs

Compound | Activity
COc1cc(/C=C/C(=O)/C=C(O)/C=C/c2ccc(OC(=O)[C@H](CCSC)NC(=O)OCc3ccccc3)c(OC)c2)ccc1OC(=O)[C@H](CCSC)NC(=O)OCc1ccccc1 | 0.25 mm

Tested on: Salmonella typhimurium
Assay: Antibacterial activity against Salmonella typhimurium ATCC 19430 incubated for 18 hrs by agar dilution assay
Type: functional, Salmonella enterica subsp. enterica serovar Typhimurium
Conditions: Salmonella enterica

MIC | Compound
0.125 µg/mL and 0.139 µM | COc1cc(/C=C/C(=O)/C=C(O)/C=C/c2ccc(OC(=O)[C@H](CCSC)NC(=O)OCc3ccccc3)c(OC)c2)ccc1OC(=O)[C@H](CCSC)NC(=O)OCc1ccccc1

Tested on: Pseudomonas aeruginosa
Assay: Antibacterial activity against Pseudomonas aeruginosa ATCC 27853 incubated for 18 hrs by agar dilution assay
Type: functional
Conditions: not given

MIC | Compound
0.125 µg/mL and 0.139 µM | COc1cc(/C=C/C(=O)/C=C(O)/C=C/c2ccc(OC(=O)[C@H](CCSC)NC(=O)OCc3ccccc3)c(OC)c2)ccc1OC(=O)[C@H](CCSC)NC(=O)OCc1ccccc1

Tested on: Rattus norvegicus
Assay: Anti-inflammatory activity in Wistar rat assessed as inhibition of carrageenan-induced paw edema at 10 mg/kg, ip pretreated for 1 hr followed by carrageenan challenge and measured after 4 hr relative to indomethacin
Type: functional
Conditions: time 5 hrs

Compound | inhibition in vivo at 10 mg/kg
COc1cc(/C=C/C(=O)/C=C(O)/C=C/c2ccc(OC(=O)[C@H](CCSC)NC(=O)OCc3ccccc3)c(OC)c2)ccc1OC(=O)[C@H](CCSC)NC(=O)OCc1ccccc1 | 101%

Tested on: not listed separately
Assay: Ulcerogenic activity in fasted albino mouse assessed as average number of ulcers in gastric mucosa at 10 mg/kg, po for 3 days (reference value: 0)
Type: toxicity, organism-based
Conditions: in vivo, 72 h, time 3 day

Compound | Activity
COc1cc(/C=C/C(=O)/C=C(O)/C=C/c2ccc(OC(=O)[C@H](CCSC)NC(=O)OCc3ccccc3)c(OC)c2)ccc1OC(=O)[C@H](CCSC)NC(=O)OCc1ccccc1 | 0.33

Tested on: Mus musculus
Assay: Analgesic activity in albino mouse assessed as protection at 10 mg/kg, ip measured after 120 mins by hot plate test relative to indomethacin
Type: functional
Conditions: 2 h

Compound | Activity
COc1cc(/C=C/C(=O)/C=C(O)/C=C/c2ccc(OC(=O)[C@H](CCSC)NC(=O)OCc3ccccc3)c(OC)c2)ccc1OC(=O)[C@H](CCSC)NC(=O)OCc1ccccc1 | 51%

Tested on: Rattus norvegicus
Assay: Anti-inflammatory activity in Wistar rat assessed as inhibition of carrageenan-induced paw edema at 10 mg/kg, ip pretreated for 1 hr followed by carrageenan challenge and measured after 24 hr relative to control (reference value: 0.00 +/-0.3 %)
Type: functional
Conditions: time 25 hrs

Compound | inhibition in vivo at 10 mg/kg
COc1cc(/C=C/C(=O)/C=C(O)/C=C/c2ccc(OC(=O)[C@H](CCSC)NC(=O)OCc3ccccc3)c(OC)c2)ccc1OC(=O)[C@H](CCSC)NC(=O)OCc1ccccc1 | 94%

Tested on: Peritoneal macrophage
Assay: Antiinflammatory activity in […] mouse Peritoneal macrophages assessed as reduction in LPS-induced NO production by measuring reduction in stimulation index at 10 uM preincubated for 1 hr followed by LPS stimulation measured after 24 hrs by Griess method (reference value: 27.31 +/- 2.56 uM)
Type: functional
Conditions: time 25 hrs

Compound | Activity
COc1cc(/C=C/C(=O)/C=C(O)/C=C/c2ccc(OC(=O)[C@H](CCSC)NC(=O)OCc3ccccc3)c(OC)c2)ccc1OC(=O)[C@H](CCSC)NC(=O)OCc1ccccc1 | 15.17 µM

Tested on: Splenocyte
Assay: Immunomodulatory activity in Swiss albino mouse splenocytes assessed as cell viability at 10 uM by measuring stimulation index incubated for 72 hrs in presence of mitogenic stimulus phytohaemagglutinin by MTT assay (reference value: 1.00 +/- 0.24)
Type: functional
Conditions: not given

Compound | Activity_index
COc1cc(/C=C/C(=O)/C=C(O)/C=C/c2ccc(OC(=O)[C@H](CCSC)NC(=O)OCc3ccccc3)c(OC)c2)ccc1OC(=O)[C@H](CCSC)NC(=O)OCc1ccccc1 | 1.22

Tested on: Rattus norvegicus
Assay: Anti-inflammatory activity in Wistar rat assessed as inhibition of carrageenan-induced paw edema at 10 mg/kg, ip pretreated for 1 hr followed by carrageenan challenge and measured after 2 hr relative to control (reference value: 0.00 +/-0.03 %)
Type: functional
Conditions: time 3 hrs

Compound | inhibition in vivo at 10 mg/kg
COc1cc(/C=C/C(=O)/C=C(O)/C=C/c2ccc(OC(=O)[C@H](CCSC)NC(=O)OCc3ccccc3)c(OC)c2)ccc1OC(=O)[C@H](CCSC)NC(=O)OCc1ccccc1 | 80%

Tested on: Mus musculus
Assay: Analgesic activity in albino mouse assessed as forepaw licking/jumping latency time at 10 mg/kg, ip measured after 90 mins by hot plate test (reference value: 2.72 +/- 0.01 sec)
Type: functional
Conditions: 1.5 h

Compound | Time
COc1cc(/C=C/C(=O)/C=C(O)/C=C/c2ccc(OC(=O)[C@H](CCSC)NC(=O)OCc3ccccc3)c(OC)c2)ccc1OC(=O)[C@H](CCSC)NC(=O)OCc1ccccc1 | 3.66 s
